The target of series [1] is T1, Human sEH (Homo sapiens, UniProt P34913).
T1 sequence (P34913 1-555): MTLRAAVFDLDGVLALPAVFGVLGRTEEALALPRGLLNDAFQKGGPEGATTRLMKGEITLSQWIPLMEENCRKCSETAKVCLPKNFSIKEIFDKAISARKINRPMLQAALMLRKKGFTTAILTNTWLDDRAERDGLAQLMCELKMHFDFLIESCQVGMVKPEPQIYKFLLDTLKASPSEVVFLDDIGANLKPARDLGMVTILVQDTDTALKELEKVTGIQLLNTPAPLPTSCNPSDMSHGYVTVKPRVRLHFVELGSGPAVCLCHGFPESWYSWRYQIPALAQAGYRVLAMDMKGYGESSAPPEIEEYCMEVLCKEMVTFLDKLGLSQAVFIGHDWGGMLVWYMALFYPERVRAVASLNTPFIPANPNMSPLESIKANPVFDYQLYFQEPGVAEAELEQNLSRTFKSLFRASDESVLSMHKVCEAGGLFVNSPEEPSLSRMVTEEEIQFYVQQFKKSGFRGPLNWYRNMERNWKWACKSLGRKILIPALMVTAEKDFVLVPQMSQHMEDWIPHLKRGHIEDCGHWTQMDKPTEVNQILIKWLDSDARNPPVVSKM
Briefly: Fluorescent assay with CMNPC substrate (Example 2). Type of series: biochemical. As for the experimental part: A fluorescent assay was employed for high throughput screening (HTS) of inhibitors of sEH. Cyano(2-methoxynaphthalen-6-yl)methyl trans-(3-phenyloxyran-2-yl)methyl carbonate (CMNPC) was used as the fluorescent substrate. Human sEH (1 nM) was incubated with a compound of Formula I for 5 min in pH 7.0 Bis-Tris/HCl buffer (25 mM) containing 0.1 mg/mL of BSA at 30° C. prior to substrate introduction ([S]=5 μM). […] IC50 values are the average of the three replicates with at least two datum points above and at least two below the IC50.

The nature of series [2]: In vitro human liver microsomal metabolic stability (Example 4). Type of series: in vitro ADME. The following applies: for CLint scaled / half-life: pooled human liver microsomes; for CLint scaled: apparent intrinsic clearance, human liver microsomes; for half-life: half life in human liver microsomes, averages of duplicate determination, read-out: hLM t1/2. As for the experimental part: The stability of sEH inhibitors in a human liver microsomal assay was determined as a predictor of in vivo oxidative metabolism. Microsomal stability was assessed in pooled human liver microsomes (Celsis, Edison, N.J.). All reactions were carried out for 90 min at 37° C. in an NADPH-generating system consisting of glucose 6-phosphate, glucose 6-phosphate dehydrogenase, and NADP^+ (Sigma, St. Louis, Mo.). Positive control incubations proceeded with 7-ethoxycoumarin as the substrate. Reactions were terminated by adding methanol. The mixtures were centrifuged and the supernatants were evaporated. The residues were reconstituted in mobile phase (85% ACN; 15% H2O) and subjected to LC/MS analysis.

Series [3] concerns the target T1, Human sEH. Briefly: biochemical. The settings on record: Table 1.

By IC50 is commonly meant the concentration at which inhibition is half-maximal. Low readings indicate inhibition by little substance, high ones a need for much substance. Usually CLint scaled stands for a measure of how fast metabolising enzymes remove a compound, apart from limits set by blood flow. In series [1], `Cc1ccc(S(=O)(=O)N2CCC(C(=O)Nc3ccc4ccccc4c3)CC2)c(C)c1` [Compound 7-38] registered an IC50 of 1.6 nM. In series [2], the CLint scaled worked out at 35 mL/min/kg and the half-life is 36 min.

With `Cc1ccc(S(=O)(=O)N2CCC(C(=O)Nc3ccc(F)cc3)CC2)c(C)c1` [Compound 7-32], the midpoint of inhibition in series [1], the IC50, lay at 25 nM. `Cc1ccc(S(=O)(=O)N2CCC(C(=O)Nc3ccc(O)cc3)CC2)c(C)c1` [Compound 7-19] came in with a half-maximal inhibitory concentration (IC50) in series [1] of 55 nM. Still for that read-out and setting: the result for `Cc1ccc(S(=O)(=O)N2CCC(C(=O)Nc3ccc(S(=O)(=O)C(F)(F)F)cc3)CC2)c(C)c1` [Compound 7-30] reads 8.7 nM. In turn, `Cc1ccc(S(=O)(=O)N2CCC(C(=O)Nc3ccc(Oc4ccccc4)cc3)CC2)c(C)c1` [Compound 7-20] yielded an IC50 in series [1] of 6 nM. In series [2], the CLint scaled stood at 120 mL/min/kg and the half-life worked out at 11 min. In turn, `Cc1ccc(S(=O)(=O)N2CCC(C(=O)Nc3ccccc3O)CC2)c(C)c1` [Compound 7-17] registered an IC50 in series [1] of 2200 nM. Same read-out and setting: the result for `Cc1ccc(S(=O)(=O)N2CCC(C(=O)Nc3ccccc3Br)CC2)c(C)c1` [Compound 7-15] reads 30 nM.

`Cc1ccc(S(=O)(=O)N2CCC(C(=O)Nc3ccc(C(F)(F)F)cc3)CC2)c(C)c1` [Compound 7-29] registered an IC50 in series [1] of 6.9 nM. For `Cc1ccc(S(=O)(=O)N2CCC(C(=O)Nc3ccc(Cl)c(Cl)c3)CC2)c(C)c1` [Compound 7-37], in series [1], half-maximal inhibition (IC50) was put at 6.7 nM. For the same compound, in series [2], the CLint scaled was determined as 50 mL/min/kg and the half-life worked out at 25 min. Take `Cc1ccc(S(=O)(=O)N2CCC(C(=O)Nc3ccc(N4CCCCC4)cc3)CC2)c(C)c1` [Compound 7-25]: in series [1], the IC50 is 29 nM. For the same compound, the “in vitro metabolic stability in human liver microsomes, in words” value (shortened to “in vitro metabolic stability”) in series [2] is given as “intermediate metabolic profiles”. In turn, `Cc1ccc(S(=O)(=O)N2CCC(C(=O)NC3CCCc4ccccc43)CC2)c(C)c1` (centres unmarked) [Compound 7-8] returned an IC50 in series [1] of 0.6 nM. In turn, `Cc1ccc(S(=O)(=O)N2CCC(C(=O)Nc3ccc4cc(C(=O)O)ccc4c3)CC2)c(C)c1` [Compound 7-44] returned an IC50 in series [1] of 23 nM. Moreover, in series [2], the “in vitro metabolic stability” value is “excellent in vitro metabolic stability”; the CLint scaled came to 5.6 mL/min/kg; the half-life was 220 min. Consider `Cc1ccc(S(=O)(=O)N2CCC(C(=O)Nc3ccccc3Cl)CC2)c(C)c1` [Compound 7-14], for which the IC50 in series [1] worked out at 250 nM.

`Cc1ccc(S(=O)(=O)N2CCC(C(=O)Nc3ccc4c(c3)OCO4)CC2)c(C)c1` [Compound 7-45] returned an IC50 in series [1] of 0.6 nM. For the same compound, in series [2], the CLint scaled was 35 mL/min/kg and the half-life came to 36 min. In the same order, the values of `Cc1ccc(S(=O)(=O)N2CCC(C(=O)Nc3ccc(OC(F)(F)F)cc3)CC2)c(C)c1` [Compound 7-23] are 5.2 nM, 28 mL/min/kg and 46 min. In turn, `Cc1ccc(S(=O)(=O)N2CCC(C(=O)Nc3ccc(Cl)cc3)CC2)c(C)c1` [Compound 7-33] registered an IC50 in series [1] of 20 nM. For `Cc1ccc(S(=O)(=O)N2CCC(C(=O)Nc3cccc(C(F)(F)F)c3)CC2)c(C)c1` [Compound 7-31], the IC50 in series [1] is 20 nM. As for `Cc1ccc(S(=O)(=O)N2CCC(C(=O)Nc3cc(Cl)cc(Cl)c3)CC2)c(C)c1` [Compound 7-35], in series [1], the IC50 is 12 nM. In series [1], `Cc1ccc(S(=O)(=O)N2CCC(C(=O)Nc3ccccc3C)CC2)c(C)c1` [Compound 7-16] returned an IC50 of 640 nM. The same measure, in the same setting: the result for `COC(=O)c1ccc(NC(=O)C2CCN(S(=O)(=O)c3ccc(C)cc3C)CC2)cc1` [Compound 7-21] reads 13 nM. Take `Cc1ccc(S(=O)(=O)N2CCC(C(=O)NC34CC5CC(CC(C5)C3)C4)CC2)c(C)c1` [Compound 2535]: the IC50 in series [3] came out at 8.5 nM. For the compound `Cc1ccc(S(=O)(=O)N2CCC(C(=O)Nc3ccc4ncccc4c3)CC2)c(C)c1` [Compound 7-41], in series [1], the IC50 is 78 nM. In other words, the double-digit nanomolar range.

With `Cc1ccc(S(=O)(=O)N2CCC(C(=O)NC3CCCCC3)CC2)c(C)c1` [Compound 7-6], in series [2], the CLint scaled stood at 90 mL/min/kg and the half-life came to 14 min.

In series [1], `Cc1ccc(S(=O)(=O)N2CCC(C(=O)Nc3ccc([N+](=O)[O-])cc3)CC2)c(C)c1` [Compound 7-24] returned an IC50 of 4.6 nM. Also, in series [2], the CLint scaled was 7 mL/min/kg and the half-life came out at 180 min.

On to `Cc1ccc(S(=O)(=O)N2CCC(C(=O)NC3C[C@@H]3c3ccccc3)CC2)c(C)c1` (some centres unmarked) [Compound 2536], for which 5.2 nM corresponded to half-maximal inhibition in series [3] (IC50). The compound `Cc1ccc(S(=O)(=O)N2CCC(C(=O)Nc3ccc(Br)cc3)CC2)c(C)c1` [Compound 7-34] displayed an IC50 in series [1] of 17 nM. The compound `Cc1ccc(S(=O)(=O)N2CCC(C(=O)Nc3ccc(N4CCCCC4)c(C(N)=O)c3)CC2)c(C)c1` [Compound 7-26] yielded a concentration for half-maximal inhibition (IC50) in series [1] of 102 nM. The “in vitro metabolic stability” value in series [2] is “intermediate metabolic profiles”. On to `Cc1ccc(S(=O)(=O)N2CCC(C(=O)Nc3ccc4cc(C(=O)O)ccc4c3)CC2)c(C)c1` [Compound 2590], for which the IC50 in series [3] was 23.2 nM. `Cc1ccc(S(=O)(=O)N2CCC(C(=O)Nc3ccc(C(C)C)cc3)CC2)c(C)c1` [Compound 7-28] returned an IC50 in series [1] of 2.8 nM. On the same count and under the same terms, the result for `Cc1ccc(S(=O)(=O)N2CCC(C(=O)Nc3ccccc3)CC2)c(C)c1` [Compound 7-12] reads 23 nM; that for `Cc1ccc(S(=O)(=O)N2CCC(C(=O)Nc3ccc(Cl)c(C(F)(F)F)c3)CC2)c(C)c1` [Compound 7-36], 43 nM. For the compound `Cc1ccc(S(=O)(=O)N2CCC(C(=O)NC34CC5CC(CC(C5)C3)C4)CC2)c(C)c1` [Compound 7-11], the IC50 in series [1] was found to be 8.5 nM. In series [2], the intrinsic clearance (CLint scaled) came to 340 mL/min/kg and the half-life stood at 3.7 min.

`Cc1ccc(S(=O)(=O)N2CCC(C(=O)Nc3ccccc3F)CC2)c(C)c1` [Compound 7-13] showed an IC50 in series [1] of 20 nM.

On to `Cc1ccc(S(=O)(=O)N2CCC(C(=O)NCC3CCCCC3)CC2)c(C)c1` [Compound 7-9], for which, in series [2], the CLint scaled came to 520 mL/min/kg and the half-life stood at 2.4 min.

In turn, `Cc1ccc(S(=O)(=O)N2CCC(C(=O)Nc3ccc(C(=O)O)cc3)CC2)c(C)c1` [Compound 7-22] registered an IC50 in series [1] of 110 nM. This lies in the sub-micromolar range.

Regarding `COC(=O)c1ccc2cc(NC(=O)C3CCN(S(=O)(=O)c4ccc(C)cc4C)CC3)ccc2c1` [Compound 7-43], inhibition in series [1] was half-maximal at 2.3 nM (IC50). Turning to `Cc1ccc(S(=O)(=O)N2CCC(C(=O)N[C@@H]3C[C@H]3c3ccccc3)CC2)c(C)c1` [Compound 7-3], the IC50 in series [1] turned out to be 5.2 nM. Moreover, in series [2], the CLint scaled turned out to be 90 mL/min/kg and the half-life was determined as 14 min. `Cc1ccc(S(=O)(=O)N2CCC(C(=O)Nc3ccc(N4CCOCC4)cc3)CC2)c(C)c1` [Compound 7-27]: the IC50 in series [1] worked out at 41 nM. `Cc1ccc(S(=O)(=O)N2CCC(C(=O)Nc3cnc4ccccc4c3)CC2)c(C)c1` [Compound 7-40] gave an IC50 in series [1] of 45 nM. This IC50 and that of the compound before are within 1.5-fold of each other.

These data come from patent US20140336193A1, “POTENT NON-UREA INHIBITORS OF SOLUBLE EPOXIDE HYDROLASE” (priority 2012, published 2014).
